Results from patent US20130039956A1, “USE OF NITROCARBOXYLIC ACIDS FOR THE TREATMENT, DIAGNOSIS AND PROPHYLAXIS OF AGGRESSIVE HEALING PATTERNS” (priority 2010, published 2013).

What was measured:
[1] = tested on: Tracheas of adult Wistar rats; experiment: Tissue damage due to barotrauma ex vivo (tracheal rings); format: cell-based; settings: inhibitor 10 micromol, 6 hours before traumatization
Protocol: In order to determine the effects of nitrated fatty acids on mechanical trauma to tracheal cells, an ex vivo model was established. Tracheas of adult Wistar rats sacrificed with thiopental given intraabdominally were carefully resected (harvested). Whole (intact) tracheas were cultured in DMEM 10 (Sigma) supplemented with antibiotic/antimycotic drugs for 48 hours at 37° C. Tracheas were cut into five pieces of equal size. One piece was immediately analyzed, two were bathed in 0.9% saline, one was bathed in a solution containing native fatty acid in SDS (1%), and one was bathed in a solution containing nitro fatty acid, respectively, for 15 minutes each. The inner diameters of the tracheal rings were measured. A non-compliant balloon catheter for use in vascular interventions was chosen, so that the nominal balloon diameter was 15-20% larger than that of the trachea. One tracheal ring pretreated with 0.9% saline was left untreated; the other prepared tracheal rings were mounted on the balloon catheter, which was inflated to a pressure of 4 atm thereafter. Balloons were kept inflated for 4 hours, while being positioned in the culture medium. Thereafter, the tracheal rings were further cultivated in separate vials for 24 hours. In a separate set of investigations, sense/antisense ODNs for HO-1 (Invitrogen) directed against the translation initiation codon in the HO-1 cDNA was used to inhibit hemoxydase-1 synthesis. The cells were transfected using the Superfect transfection reagent (Qiagen) before traumatization. In another set of experiments, the HO inhibitor SnPP IX (Porphyrin Products, London, UK) was added to the culture medium 6 hours before traumatization at a dose of 10 micromol.
For analysis, the rings were cut into small strips using a no touch technique. Viability was tested using a MTT assay and apoptosis using a TUNEL assay. Anti-HO-1 antibodies (StressGen, Tebu, Le-Perray-en-Yvelines, France) were measured by Western blot and immunohistochemistry.

[2] = tested on: human dermal fibroblasts; experiment: Extra cellular matrix production (collagen-1) in response to TGF-β2 in dermal fibroblasts; format: cell-based
Protocol: In order to determine whether PPRA gamma stimulation due to nitrated fatty acids plays a role in the inventive inhibition of an aggressive healing pattern to an irritating stimulus, human dermal fibroblasts were investigated. A dominant-negative PPAR gamma mutant (L466A) cell clone was generated by polymerase chain reaction-based site-directed mutagenesis. Presence of PPAR gamma or absence was investigated using a PPAR gamma antibody reaction which was determined using an enhanced chemiluminescence detection system. Furthermore, one cell series was incubated with a selective irreversible PPAR gamma ligand (GW9662, 1 μmol), which effectively blocks PPAR gamma receptors.
Sequential cultivation of human dermal fibroblasts was performed in EMEM containing 5 mM glucose supplemented with 10% FCS under standard cultivation conditions. Cells were allowed to grow to confluence in a 96-well plate. Wild-type fibroblasts and PPAR gamma deficient fibroblasts were investigated by a set-up of 2×10 sample sets comprising: (1) blank control; (2) stimulation control; (3) preincubation with the PPAR gamma antagonist GW9662 (Cayman Chemical); (4) preincubation with the PPAR agonist troglitazone (25 μmol). In 2×4 sample sets, native fatty acids were added to the medium to achieve a final concentration of 10 and 50 μmol, respectively; in another 2×4 sets the nitrated fatty acids were added to the medium in the same concentration, while 2×2 sets served as controls. In 10 of the sets, TGF-β2 was added to the culture medium at a concentration of 25 ng/ml. Cultivation was continued for 48 hours and then processed in order to analyze collagen-1 as measured by enhanced chemiluminescence detection of immuncomplexes.

[3] = tested on: human umbellical endothelial cells (HUVEC); experiment: Adhesion, propagation and growth of endothelial cells on coated polystyrene films; format: cell-based; settings: days 3, 7, 14, compared with native FA; note: key: 0: not superior to native FA (control); +: Superior to native FA; ++: superior to both; +++: outstanding effect
Protocol: Polystyrene scaffolds were prepared and pretreated in the same manner as performed in example 1 by using the same nitrocarboxylic acids as listed in table 1. The film samples were placed in a culture dish containing a gel matrix, in which human umbellical endothelial cells (HUVEC) had been allowed to grow to confluence. The culture medium consisted of 5% FCS, which was replaced every 5 days. Cultivation was performed according to standard conditions. Films were evaluated at days 3, 7, and 14 after careful extraction from the culture dishes, rinsing with saline solution, and staining with methylene blue. Using a reflected light microscope, the films were immediately examined to evaluate the following: Propagation of cells to the film center, cell confluidity, multilayer formation, and cell shape.

[4] = tested on: Human peripheral blood mononuclear cells (PBMCs); experiment: Adhesion of serum proteins and monocyte activation induced by coated silicone; format: cell-based; settings: dip-coated silicone, PBMCs 3 days; compared with native FA; note: key: 0: not superior to native FA (control); +: Superior to native FA; ++: superior to both; +++: outstanding effect
Protocol: In order to determine the effect of coating implant materials with nitro fatty acids to reduce adsorption of adhesion molecules and monocyte activation, sterile silicone sheets were out in small pieces and coated with respective nirocarboxylic acid and the corresponding native fatty acids by dip coating. Uncoated silicone pieces served as controls. For each fatty acid two sets of silicone pieces were bathed in freshly drawn human serum for 1 hour at 37° C., and another two sets were bathed in saline solutions. One set of both coated and uncoated pieces was analyzed immediately for adhesion proteins and the other set was placed in 96-well plates after rinsing the silicone pieces. Human peripheral blood mononuclear cells (PBMCs), isolated from three healthy subjects, were added to each well. Wells were incubated for 3 days under standard conditions. Culture supernatants were assayed for IL-1beta, IL-6, IL-8, and chemoattractant protein 1 (MCP-1) levels at the start and end of experiments.
Before analyzing the silicone pieces for protein adsorption, they were bathed in saline for 5 minutes. Thereafter, one side was rinsed with saline as performed for both sides in the set used for culturing. There was marked adsorption of fibrinogen and […] C5b-9 on the uncoated silicone. […] No protein was found on the surface of the nitro fatty acid-coated sample that was rinsed, thus, indicating the weak adherence of serum proteins.

[5] = tested on: Murine macrophage-like cells RAW 264.7 and murine L929 fibroblasts; experiment: Monocyte/fibroblast co-culture on coated surgical suture material; format: cell-based; settings: dip-coated suture material, 24 and 48 hours; compared with native FA; note: key: 0: not superior to native FA (control); +: Superior to native FA; ++: superior to both; +++: outstanding effect
From the text: In order to determine immunoreactions to foreign material and its consequence on fibrogenesis, co-cultures of fibroblasts and monocytes were used. Commercially available suture materials (propylene, polyamide, and silk) were dip-coated with corresponding native and nitrated fatty acids. Untreated suture material served as control. Treated and untreated suture materials were out in small pieces and placed in a 96-well plate.
Murine macrophage-like cells RAW 264.7 and murine L929 fibroblasts were cultured to a population density of 5×10(5) each. Cell suspensions were merged achieving a cellularity of approximately 2.5×10(5) cell/ml of each cell population which were added to the wells. The suture material samples were fully covered by the suspension. Wells were continuously and gently shaken throughout the incubation period.
Supernatants were collected for assays after 24 and 48 hours and analyzed for profibrotic cytokines IL-13, IL-4, and IL-6, TGF-β1, collagen I.

[6] = tested on: Cardiomyocytes; experiment: TGF-β1-inducible formation of extracellular matrix in cardiomyocytes under shear stress; format: cell-based; settings: 10-100 μmol, shear stress up to 100 dyn/cm^2; compared with native FA; note: key: 0: not superior to native FA (control); +: Superior to native FA; ++: superior to both; +++: outstanding effect
Protocol: Characterizing features of the fibrous remodelling in the heart are accentuated expression and deposition of extracellular matrix proteins (ECM). This has been attributed to increased mechanical forces via autocrine release of transforming growth factor-beta (TGF-beta). […] An established cell culture model was used to investigate the effect of shear stress on cardiomyocytes. Cardiomyocytes were cultured and transferred to a matrigel substrate. Plates with confluenced cells were placed into a shear force injury device (SFID). The SFID design is based on a cone-and-plate construction which is a well-defined rheological model in which a homogenously distributed laminar flow over the surface of the cells is generated by a rotating cone. The conical surface is positioned above a stationary flat plate and the fluid medium between these two surfaces is set in motion by rotating the cone to create a uniform level of fluid shear stress throughout the entire surface of the cells cultured on the coverslips.
A peak shear stress of 100 dyn/cm^2 could be applied without significant cell detachment enabling a maximum injury severity of 46%. Cells were exposed to FCS 1% without or with nitro-fatty acid, and the corresponding native fatty acid in a dosage range between 10 μmol and 100 μmol, 10 seconds before shear force application. Shear force peaks up to 100 dyn/cm^2 with a duration of 30 msec each with a repetition frequency of 60/minute were applied for 5, 10, 30 and 60 minutes. Thereafter the cell plates were washed and placed in FCS 1% for 24 hrs. The supernatant of the shear force investigation as well as that of the following culture phase was analysed. It could be shown that TGF-beta and ECM proteins (collagen I, fibronectin, laminin, elastin) increased after treatment in the control groups.

[7] = tested on: adult rats; experiment: Fibrogenesis after traumatic and thermal tissue damage in dermal wound healing in vivo; design: species or system rat; settings: 100 micromol ethanolic solution on wound margins, 8 weeks, compared with native FA
From the text: In order to determine the effects of nitrated fatty acids on fibrogenesis in response to traumatic and thermal tissue damage, an in vivo rat model was investigated. Paravertebral scalpel incision (two on each side) of approximately 1 cm in length and a depth of 1 mm were made in 12 anesthetized adult rats (150-200 g) of either sex after disinfection. Bleeding was stopped by manual compression. The entire length of the wound margins of one incision at each side were additionally cauterized using a 3-mm ball electrode connected to a DRE ASG-120 electrosurgical generator. Wound margins of one side were then covered with a sterile ethanolic 0.9% saline solution, or with a sterile ethanolic solution of the fatty acids (100 micromol), or with a sterile ethanolic solution of the nitrated fatty acids (100 micromol) using a sterile brush. A 1×10 mm cotton string that was bathed in the ethanolic solution containing 0.9% saline, native fatty acid or nitrated fatty acids was placed upon the incision site that had been closed by manual adaptation. The adaptation result and the cotton strings were fixed by an adhesive film. The animals were housed and fed according to institutional standards. The wound films were carefully removed after 2 weeks. Animals were euthanized after 8 weeks. The skin wounds were harvested, including the epidermis, dermis, and subcutaneous loose tissue with the surrounding normal tissue. The removed tissues were fixed in formalin and then embedded in paraffin. The cutting plane was vertical to the longitudinal axis of the former incisions. Slices (4-6 μm) were stained with H&E and Masson trichrome staining to evaluate the amount and density of collagen.

[8] = tested on: fibroblasts; experiment: Mechanical alteration of fibroblasts (cyclic stretching of coated polypropylene meshes); format: cell-based; settings: day 21 to end of follow-up
From the text: In order to simulate the effects of chronic shear forces on a healing wound, an in vitro model was established. A flat balloon was placed on the bottom of a Petri dish. A silicone sheet was placed above and sealed with the side of the Petri dish. Then a 3 mm agar layer was casted on top of the sheet. Commercially available polypropylene meshes for hernia repair (microporous mesh, a low-weight and macroporous mesh with absorbable polyglactin filaments, and a heavy-weight and microporous mesh) were placed on the agar plates and fixed at 4 points at the side of the Petri dish. This setting enabled stretching of the meshes by filling the balloons with air, which was performed at 10-second intervals using an automated pumping device. The model can be used to evaluate the effect of three-dimensional (3D) shear forces on cell growth during cell cultivation. Preincubated suspensions of fibroblasts (1.5×10(5) cells) in a culture medium (10% FCS) were added to the culture dishes and allowed to grow for 48 hours. Cyclic stretching was started at day 3. Histological analysis was performed from the central portions of the meshes at day 7, at day 21, and after 8 weeks. The scaffolds were detached from the culture plate and carefully rinsed. Then, they were cut into pieces, casted, and further processed for standard histology and immunohistology. Care was taken to achieve a cutting plane that was vertical to the surface plane of the meshes. Histological analysis evaluated the cellularity, the content of extra cellular matrix (ECM), and the magnitude of protein synthesis. Meshes were dip-coated with native and nitro fatty acids or left blank in the same manner as in example 1. The uncoated meshes served as controls.

C=CC1=C(C)C2=Cc3c(C=C)c(C)c4[n]3[Sn]([Cl])([Cl])[n]3c(c(C)c(CCC(=O)O)c3=CC3=NC(=C4)C(C)=C3CCC(=O)O)=CC1=N2 [HO-1 inhibitor, reference compound]
HO-1 production [1]: reduced the HO-1 production to the lower detection limit or complete absence

Cc1c(C)c2c(c(C)c1O)CCC(C)(COc1ccc(CC3SC(=O)NC3=O)cc1)O2 (stereo not shown) [PPAR agonist, troglitazone, reference compound]
reduction of collagen-1 concentrations as compared to the control ([2]; TGF-β2 stimulated, PPAR-positive cells, 25 μmol): 35-40%

O=C(Nc1ccccc1)c1cc([N+](=O)[O-])ccc1Cl [PPAR gamma antagonist, reference compound]
collagen-1 after TGF-β2 stimulation ([2]; PPAR gamma-positive and -negative cells): marked increase of collagen-1

CCCCCC=CCC=C(C/C=C\CCCCC(=O)O)[N+](=O)[O-] [compound 20, 9-nitro-cis-6,9,12-octadecatrienoic acid]
Relative differences: effect on adhesion, propagation and growth of endothelial cells [3]: 0
Relative effect on serum protein adhesion and monocyte activation [4]: +
Relative effect on profibrotic cytokines and collagen I on suture material [5]: 0
Relative efficacy to suppress TGF-beta and ECM proteins in cardiomyocytes [6]: +
Relative effect on collagen-1 production in response to TGF-β2 ([2]; 10 and 50 μmol, TGF-β2 25 ng/ml, 48 hours, compared with native FA): +
Relative effect on fibrogenesis (scar formation) in dermal wound healing [7]: +

nitrooleic acid
density of actinmyosin filaments in fibroblasts [8]: more actin-myosin fibers (intra-cellular green filaments) than fibroblasts within the coated meshes
